Values of other authors, collected in US20220386610A1, “FUNGICIDAL COMBINATIONS” (UPL Corporation Limited, priority 2019, published 2022).

Test system: soybean rust
Conditions: for control: 2012/13 season

CC(C1CC1)C(O)(Cn1cncn1)c1ccc(Cl)cc1 (stereo not shown) [cyproconazole]
control: 38%

CC(C)(C)C(O)(CCc1ccc(Cl)cc1)Cn1cncn1 (stereo not shown) [tebuconazole]
control: 42%
efficiency (reduced level) (after ten seasons): 24%
efficiency (starting level) (before the reduction over ten seasons): 90%
